{"source": "patent EP0377457A1", "about": "“Thiazole compounds, processes for the preparation thereof, and pharmaceutical composition comprising the same” (FUJISAWA PHARMACEUTICAL CO., LTD., priority 1989, dated 1990)", "key": {"[1]": {"target": "T1, cyclooxygenase (Ovis aries, UniProt P05979)", "T1 construct": "240 µg of the microsomal enzyme; tissue Ran Biochem (Israel); host or cells: sheep seminal vesicles, microsomal fraction", "T1 sequence (P05979 25-600)": "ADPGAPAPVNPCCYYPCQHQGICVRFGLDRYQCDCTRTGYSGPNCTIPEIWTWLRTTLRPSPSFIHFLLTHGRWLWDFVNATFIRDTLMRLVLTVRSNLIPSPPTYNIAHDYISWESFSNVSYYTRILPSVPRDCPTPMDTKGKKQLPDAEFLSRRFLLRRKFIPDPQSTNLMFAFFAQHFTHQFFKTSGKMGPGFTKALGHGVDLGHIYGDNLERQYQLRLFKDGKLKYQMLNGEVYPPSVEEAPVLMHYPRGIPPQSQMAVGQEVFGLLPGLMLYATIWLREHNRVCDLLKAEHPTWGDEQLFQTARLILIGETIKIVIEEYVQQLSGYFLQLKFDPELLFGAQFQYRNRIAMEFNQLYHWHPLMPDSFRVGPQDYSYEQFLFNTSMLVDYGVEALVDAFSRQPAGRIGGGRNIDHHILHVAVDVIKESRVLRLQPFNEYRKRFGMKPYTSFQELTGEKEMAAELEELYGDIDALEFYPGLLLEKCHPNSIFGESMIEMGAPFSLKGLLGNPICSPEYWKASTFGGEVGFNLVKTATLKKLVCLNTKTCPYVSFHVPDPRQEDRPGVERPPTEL", "test": "Assay for cyclooxygenase inhibition", "type": "biochemical, sheep", "description": "The microsomal fraction from sheep seminals vesicles was purchased from Ran Biochem (Israel). The reaction mixture consisted of 0.1 M Tris-HCI, pH 7.6, 1 mM epinephrine, 2 mM glutathione, 240 µg of the microsomal enzyme, in a total volume of 200 µl. The reaction was started by the addition of 10 µM (^14C) arachidonic acid (120 nM), and incubated at 37° C for 5 min. The reaction was stopped by the addition of 50 µl of 1 N HCI. The synthesized prostaglandins were extracted with 1.5 ml of ethylacetate. The ethyl acetate layer was dried with nitrogen gas, and dissolved in 100 µl of methanol. Ten microliters of the methanol solution were applied to a thin-layer plate (Merck, Kiesegel 60F), and developed with ethylacetate : acetate (100:2). The PGE2 fraction was scraped out, and the radioactivity was counted with 10 ml of toluene scintilator.\nThe activity of the test compound was expressed as IC50 value i.e. doses required to inhibit the activity of cyclooxygenase by 50%."}, "[2]": {"test_system": "SRS-A synthesis or release from peritoneal exudate cells", "test": "Anti-SRS-A activity", "type": "cell-based, SD rats", "settings": "rat peritoneal exudate cells; Ca++-ionophore 1 µg/ml; SRS-A read on isolated guinea pig ileum; read-out: Inhibitory Concentration IC50", "description": "Peritoneal exudate cells were collected from glycogen-injected SD rats and adjusted to 1 x 10^7 cells/ml with Tyrode's solution. One milliliter of the cell suspension was incubated with indomethacin (10 µg/ml) and each varied concentration of the test compound for 10 minutes and, then, further incubated with Ca^++ - ionophore (A123187, 1 µg/ml) for 10 minutes. The supernatant was collected by centrifugation and the SRS-A (slow-reacting substance of anaphylaxis) activity was determined in terms of contractility of the isolated guinea pig ileum in the presence of mepyramine, atropine and methysergide.\nThe results were expressed in terms of the 50% inhibitory concentration to SRS-A synthesis or release from peritoneal exudate cells."}, "[3]": {"test_system": "rats", "test": "Acute toxicity", "type": "in vivo", "settings": "peroral administration, 100 mg/kg"}, "[4]": {"test": "Half-life period", "settings": "rat, in vivo; rats, intravenous administration (0.32 mg/kg), (,B-phase)"}, "[5]": {"test_system": "Paw edema", "test": "Antiinflammatory activity (carrageenin paw edema)", "type": "in vivo, Sprague-Dawly rats", "settings": "100 mg/kg orally 60 minutes before carrageenin; edema volume at 3 hours", "description": "Five male Sprague-Dawly rats weighing 160-180 g were used per group. Paw edema was induced by subplantar injection of 1 % carrageenin (0.1 ml/rat) into the right hind paw. The test drug was suspended in 0.5% methylcellulose and administered orally 60 minutes before phlogogen. Paw volume was measured with plethysmometer (Ugo Bazil Co., Ltd.) by water displacement immersing the paw to the lateral malleolus. The difference of paw volume before and 3 hours after the phlogogen was designated as edema volume. The data were analyzed statistically by student's t-test."}, "[6]": {"test_system": "platelet aggregation", "test": "Platelet aggregation ex vivo (arachidonic acid-induced, PRP after oral administration)", "type": "in vivo, guinea-pigs", "settings": "Cavia porcellus, 6 h, dose 1.0 mg/kg oral, blood collected six hours after administration, arachidonic acid final 50 µM as inducer", "description": "Male Hartley guinea-pigs weighing about 300 g were used after 24 hours fasting. Six hours after oral administration of the test compound or vehicle of test compound (control), blood was collected into a tube containing 0.1 vol. of 3.8% sodium citrate and prepared platelet rich plasma (PRP).\nTo the 250 µl of PRP, 5 µl of arachidonic acid (final 50 µM) was added as an aggregation inducer. Aggregation was measured by using an aggregometer (NKK HEMA-TRACER 1)."}, "[7]": {"test_system": "stomachs of the rats", "test": "Effect on stomach of rats", "type": "in vivo", "settings": "100 mg/kg orally, rats treated as in the antiinflammatory test"}, "[8]": {"test_system": "isolated rat aorta", "test": "Relaxation effect on isolated rat aorta", "description": "Contraction was induced by addition of KCt solution (final concentration was 30 mM)."}, "[9]": {"test_system": "human washed platelets", "test": "Thrombin induced aggregation in human washed platelets", "type": "cell-based", "settings": "Platelet, concentration 1.0 x 10^-5 M, thrombin final conc. 0.3-0.5 U/ml", "description": "Blood was drawn from healthy volunteers into a plastic tube containing 1/10 volume of 3.8% sodium citrate and centrifuged at 120 g for 10 min to obtain platelet rich plasma (PRP). An equal volume of 25 mM Tris-HCI buffer (pH 7.4) containing 130 mM NaCl and 1.5 mM EDTA (buffer A) was added to the PRP, mixed and centrifuged at 1500 g for 10 min. The platelet pellet was suspended in buffer A and centrifuged at 1500 g for 5 min. The platelets were resuspended in 25 mM Tris-HCI buffer (pH 7.4) containing 130 mM NaCl and 0.3 mM EDTA and recentrifuged at 1500 g for 5 min. The platelets were finally suspended in Tyrode solution containing 0.3 % bovine serum albumin and the platelet count was adjusted to 3 x 10^8/ml. To 247.5 µl of platelet suspension, 2.5 µl of drug solution was added and incubated for 2 min at 37° C prior to addition of thrombin solution (final conc. 0.3-0.5 U/ml). Platelet aggregation was turbidometrically measured using a HEMATRACER 1."}, "[10]": {"test_system": "platelet aggregation", "test": "Platelet aggregation in vitro (collagen-induced, human PRP)", "type": "cell-based", "settings": "collagen (0.5 µg/ml) as inducer", "description": "(§1) Platelet rich plasma (PRP) which contains 6 - 7 x 10^8 platelets/ml and 3 x 10^8 platelets/ml was prepared from guinea-pig and human blood, respectively. To the each 245 µℓ of PRP, 5 µℓ of drug solution^* was added, and then stirred for 2 min at 37° C. To the solution, […] of collagen (0.5 µg/mℓ) was added as an aggregation inducer. Aggregation was measured by using an aggregometer (NKK HEMA-TRACER 1). Activities of inhibitors (test compounds) were expressed as IC50 values i.e. doses required to inhibit the platelet aggregation responses by 50%.\n(§2) Drug solution^* --- Test compounds were dissolved in a mixture of ethanol, polyethylene glycol and saline (1:1:2, V/V/V) and dimethylsulfoxide for guinea-pig and human blood, respectively."}, "[11]": {"test_system": "platelet aggregation", "test": "Platelet aggregation in vitro (collagen-induced, guinea-pig PRP)", "type": "cell-based", "settings": "Cavia porcellus, collagen (0.5 µg/ml) as inducer", "description": "as §1, §2"}, "[12]": {"settings": "contraction induced by KCl 30 mM, maximum relaxation by papaverine, read-out: ED50 (the source's name)"}}, "note": "Structures can show the parent of a compound that is named as a salt. Where two headings read alike, the source gives them in different places."}
{"smiles": "COc1ccc(-c2nc(C(=O)N3CCN(C)CC3)sc2-c2ccc(OC)cc2)cc1.Cl", "note": "[Example 1, 4,5-bis(4-methoxyphenyl)-2-(4-methylpiperazin-1-yl)carbonylthiazole hydrochloride]", "values": [{"measurement": "IC50", "setting": "[1]", "result": 430, "unit": "nM"}, {"measurement": "IC50", "setting": "[2]", "result": 6.28, "unit": "µg/mL"}, {"measurement": "acute toxicity (dead)", "setting": "[3]", "result": "the dead at dose of 100 mg/kg could not be observed"}, {"measurement": "half-life", "setting": "[4]", "result": 4.51, "unit": "h"}, {"measurement": "Inhibition (%) (Dose : 100 mg/kg)", "setting": "[5]", "result": 36.2, "unit": "%"}, {"measurement": "inhibition at 1 mg/kg", "setting": "[6]", "result": 100, "unit": "%"}, {"measurement": "lesion in the stomachs", "setting": "[7]", "result": "No lesion was observed"}, {"measurement": "EC50", "setting": "[8]; read-out: ED50 (M)", "result": "6.2e-06", "unit": "M"}]}
{"smiles": "COc1ccc(-c2nc(C(=O)N(C)C)sc2-c2ccc(OC)cc2)cc1", "note": "[Example 3, 4,5-bis(4-methoxyphenyl)-2-(N,N-dimethylcarbamoyl) thiazole]", "values": [{"measurement": "EC50", "setting": "[8]; [12]", "result": "3e-06", "unit": "M"}]}
{"smiles": "COc1ccc(-c2nc(CNC(=N)N)sc2-c2ccc(OC)cc2)cc1", "note": "[Example 12, 4,5-bis(4-methoxyphenyl)-2-guanidinomethylthiazole hydrochloride]", "values": [{"measurement": "inhibition at 10 µM", "setting": "[9]", "result": 100, "unit": "%"}]}
{"smiles": "COc1ccc(-c2nc(NC(=N)N(C)C)sc2-c2ccc(OC)cc2)cc1", "note": "[Example 14, 4,5-bis(4-methoxyphenyl)-2-(3,3-dimethylguanidino)thiazole hydrochloride]", "values": [{"measurement": "IC50", "setting": "[10]", "result": 560, "unit": "nM"}, {"measurement": "IC50", "setting": "[11]", "result": 42, "unit": "nM"}, {"measurement": "EC50", "setting": "[8]; [12]", "result": "4.8e-06", "unit": "M"}]}
{"smiles": "CN=C(NC)Nc1nc(-c2ccc(OC)cc2)c(-c2ccc(OC)cc2)s1", "note": "[Example 21, 4,5-Bis(4-methoxyphenyl)-2-(2,3-dimethylguanidino)thiazole methanesulfonate]", "values": [{"measurement": "EC50", "setting": "[8]; [12]", "result": "2.4e-06", "unit": "M"}]}
